Values quoted from earlier work, collected in PMC6413085, “A Validated HPLC-MS/MS Assay for 14-O-[(4,6-Diaminopyrimidine-2-yl)thioacetyl] Mutilin in Biological Samples and Its Pharmacokinetic, Distribution and Excretion via Urine and Feces in Rats” (Molecules, 2019).
Read-outs that look alike come from different tables or passages of the source.

What was measured:
[1] = rat, in vivo, cited from earlier work; for time at which Cmax was achieved: 5 mg/kg
[2] = in vivo; cited from earlier work
[3] = rabbit, in vivo, iv, 25 mg/kg; cited from earlier work

SMILES	absolute bioavailability following oral administration ([1]; po) [%]	absolute bioavailability following oral administration [2] [%]	time at which Cmax was achieved [3] [h]	time at which Cmax was achieved ([1]; iv) [h]	time at which Cmax was achieved ([1]; po) [h]
C=C[C@]1(C)C[C@@H](OC(=O)CSC(C)(C)CNC(=O)[C@H](N)C(C)C)[C@]2(C)[C@H](C)CC[C@]3(CCC(=O)[C@H]32)[C@@H](C)[C@@H]1O [valnemulin]	100	36.68			
C=CC1(C)CC(OC(=O)CSc2nc(N)cc(O)n2)C2(C)C(C)CCC3(CCC(=O)C32)C(C)C1O (stereo not drawn) [14-O-[(4-amino-6-hydroxy-pyrimidine-2-yl)thioacetyl] mutilin]			0.08		
C=C[C@]1(C)C[C@@H](OC(=O)CSc2nnc(N)s2)[C@]2(C)[C@H](C)CC[C@]3(CCC(=O)[C@H]32)[C@@H](C)[C@@H]1O [14-O-[(2-amino-1,3,4-thiadiazole-5-yl)thioacetyl] mutilin]	35.81			0.08	0.75
